Assay results: patent US20240287063A1, “METHIONINE ADENOSYLTRANSFERASE 2A INHIBITOR” (NANJING CHIA TAI TIANQING PHARMACEUTICAL CO., LTD., priority 2021, published 2024)

Experiments:
MAT2A enzyme = biological target: T1, MAT2A enzyme (Homo sapiens, UniProt P31153); experiment: Enzymatic testing method for MAT2A (Biomol Green, OD620); assay type: biochemical; conditions: score by IC50 for inhibiting MAT2A; read-out: MAT2A inhibition score
T1 construct: purchased BPS 71401
Experimental: • a) A 5×MAT2A test buffer (250 mM Tris-HCl, pH 8.0; 250 mM KCl; 75 mM MgCl2; 0.025% BSA; 0.05% Brij35; 1.5 mM EDTA) was first prepared and partially diluted to 1× for later use; • b) Preparation and addition of MAT2A enzyme (BPS, 71401): the MAT2A enzyme was prepared into 3.674 ng/L by using the 1×MAT2A test buffer (1.67×, final concentration 2.20 ng/L), a BioTek (MultiFlo FX) automatic liquid separator was used, 15 μL of 1.67×MAT2A enzyme solution was added to compound test wells and negative control wells respectively, and 15 μL of 1×MAT2A test buffer was added to blank control wells; • c) Preparation and addition of a compound: a compound to be tested was diluted with DMSO from 10 mM stock solution to 100 μM, a positive drug AGI-24512 was diluted under the same conditions, and the diluted compound and positive drug were automatically sprayed into each well by using a Tecan compound titrator (D300e) according to preset concentration gradients, where the spray volume was little and negligible. The concentration gradient was initially 1 μM, the dilution was implemented by ½ log, and a total of 8 gradients were set. Centrifugation at 2500 rpm for 30 s and incubation at 25° C. for 30 min were performed; • d) Preparation of ATP: 10 mM ATP (Sigma, A7699) was diluted with 1×MAT2A test buffer to 700 μM for later use; • e) Preparation and addition of a substrate and ATP mixture: 5×MAT2A test buffer, 3 μL/well; 750 μM L-methionine (Adamas, 01100469), 2.5 μL/well; 700 μM ATP, 2.5 μL/well; and double distilled water, 2 μL/well. A total amount of required mixture was prepared according to the number of test wells, and 10 μL of the mixture was added to each well by using the BioTek (MultiFlo FX) automatic liquid separator, followed by centrifugation at 2500 rpm for 30 s and reaction at 25° C. for 150 min; • f) Addition of Biomol Green detection reagent: 50 μL of Biomol Green (Enzo, BML-AK111) was added to each well by using the BioTek (MultiFlo FX) automatic liquid separator, followed by centrifugation at 2500 rpm for 30 s and incubation at 25° C. for 20 minutes; • g) After the reaction, OD620 values were read by using a Perkin Elmer (Envision 2105) multifunctional plate reader.
A formula for calculating an inhibition rate was as follows: […]
Wherein, • % Inhibition: inhibition rate % • ODsample: OD620 value in a sample well; • ODmin: representing a mean OD620 value of blank control wells without the enzyme or compound to be tested; • ODmax: representing a mean OD620 value of negative control wells with the enzyme and without the compound.
Then a dose-effect curve log(inhibitor) vs. response-Variable slope was fitted by usingGraphPad Prism 5 software to obtain an IC50 value of compound for MAT2A enzyme inhibition.

[1] = test system: HCT116 MTAP−/− subcutaneous xenograft tumors; experiment: In vivo effect experiment of HCT116 MTAP−/− subcutaneous xenograft tumors in nude mice; conditions: 50 mg/kg daily intragastric
Experimental: Female Nu/Nu nude mice (6-8 weeks old, Beijing Vital River Laboratory Animal Technology Co., Ltd.) were raised in an SPF animal room at a temperature of 20° C.-25° C., relative humidity of 40%-70%, and light and dark lighting for 12 hours each; and animals can freely drink and eat. The animals were adaptively fed before experiment.
HCT116 MTAP^−/− cells (Horizon) were cultured in vitro for proliferation, cells in logarithmic growth phase were collected and resuspended in a serum-free RPMI-1640 medium, and the cell concentration was adjusted to 6.0×10^7 cells/mL; and 100 μL of the cell suspension was injected subcutaneously into the right anterior armpit of each nude mouse by using a 1 mL syringe, the status of the animals was observed regularly, and the growth of transplanted tumors was monitored regularly.
When the tumor volume reached 100-300 mm^3, animals with too large or too small tumor volume or uncertain tumor formation were eliminated, and tumor bearing mice with good health and similar tumor volume were selected and randomly grouped, 6 mice in each group; the administration group received daily intragastric administration (AG-270: 50 mg/kg, with a structure shown below; compound to be tested: 1-7.5 mg/kg); and the control group was intragastrically administrated with the same volume of blank solvent. In the administration period, the tumor diameter was measured twice a week, the tumor volume was calculated, the animals were weighed, and their weight was recorded.
A formula for calculating tumor volume (TV) is: Tv=½×a×b^2, wherein a represents long diameter of the tumor, and b represents short diameter of the tumor.
Experimental data is calculated and statistically processed by using Microsoft Office Excel 2007 software. Unless otherwise specified, the data were expressed as mean±standard error (Mean SEM), and t-test is used for comparison between two groups.
Growth curves of tumor volume in each group are shown in FIG. 1, results of SAM test in tumors of each group are shown in FIG. 2, and the mean tumor volume and SEM in each group are shown in Table 2 below: […]

T1 sequence (P31153 whole entry): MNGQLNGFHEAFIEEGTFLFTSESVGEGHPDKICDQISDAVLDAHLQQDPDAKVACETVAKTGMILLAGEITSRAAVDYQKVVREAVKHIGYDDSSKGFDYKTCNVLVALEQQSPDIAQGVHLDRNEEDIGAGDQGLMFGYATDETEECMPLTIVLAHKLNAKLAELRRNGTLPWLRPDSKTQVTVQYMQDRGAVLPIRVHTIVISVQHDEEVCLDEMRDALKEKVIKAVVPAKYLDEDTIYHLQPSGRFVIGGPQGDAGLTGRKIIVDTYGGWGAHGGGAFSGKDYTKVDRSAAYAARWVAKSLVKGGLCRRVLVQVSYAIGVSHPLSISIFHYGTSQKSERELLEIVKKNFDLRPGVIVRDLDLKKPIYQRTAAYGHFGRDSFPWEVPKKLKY

IC50 (MAT2A enzyme) [nM] | SMILES | further results
> 1000 | COc1ccc(-c2cn3ccc(C4CC4)nc3c(-c3ccc4c(c3)OC(F)(F)O4)c2=O)cc1OC [Example 33, 2-cyclopropyl-9-(2,2-difluoro-1,3-benzodioxol-5-yl)-7-(3,4-dimethoxyphenyl)-8H-pyrido[1,2-a]pyrimidin-8-one] | 
< 50 | N#CCn1cc2cc(-c3cn4ccc(NCC(F)(F)F)nc4c(-c4ccc(OC(F)F)cc4)c3=O)ccc2n1 [Example 19, 2-(5-{9-[4-(difluoromethoxy)phenyl]-8-oxo-2-[(2,2,2-trifluoroethyl)amino]pyrido[1,2-a]pyrimidin-7-yl}indazol-2-yl)acetonitrile] | 
> 1000 | COc1cc(-c2cn3ccc(C4CC4)nc3c(-c3ccc4c(c3)OC(F)(F)O4)c2=O)ccc1OC(F)F [Example 34, 2-cyclopropyl-9-(2,2-difluoro-1,3-benzodioxol-5-yl)-7-[4-(difluoromethoxy)-3-methoxyphenyl]-8H-pyrido[1,2-a]pyrimidin-8-one] | 
> 1000 | COc1ccc(-c2cn3ccc(C4CC4)nc3c(-c3ccc(OC)c(OC)c3)c2=O)cc1OC [Example 31, 2-cyclopropyl-7,9-bis(3,4-dimethoxyphenyl)-8H-pyrido[1,2-a]pyrimidin-8-one] | 
< 50 | O=c1c(-c2ccc(OC(F)F)cc2)cn2ccc(Cl)cc2c1-c1ccc(OC(F)F)cc1 [Example 2, 8-chloro-1,3-bis(4-(difluoromethoxy)phenyl)-2H-quinolizin-2-one] | 
> 1000 | O=c1c(-c2ccc3c(c2)OC(F)(F)O3)cn2ccc(C3CC3)nc2c1-c1ccc2c(c1)OC(F)(F)O2 [Example 30, 2-cyclopropyl-7,9-bis(2,2-difluoro-1,3-benzodioxol-5-yl)-8H-pyrido[1,2-a]pyrimidin-8-one] | 
> 1000 | Cn1nc2ccc(-c3cn4ccc(C5CC5)cc4c(-c4ccc5nn(C)c(N)c5c4)c3=O)cc2c1N [Example 5, 1,3-bis(3-amino-2-methyl-2H-indazol-5-yl)-8-cyclopropylquinolizin-2-one] | 
< 50 | O=C1NC2(CC2)Cn2nc3ccc(-c4cn5ccc(C6CC6)nc5c(-c5ccc(OC(F)F)cc5)c4=O)cc3c21 [Example 35, 9′-(2-cyclopropyl-9-(4-(difluoromethoxy)phenyl)-8-oxo-8H-pyrido[1,2-a]pyrimidin-7-yl)-4′H-spiro[cyclopropane-1,3′-pyrazino[1,2-b]indazol]-1′(2′H)-one] | 
> 1000 | O=c1ccn2cc(-c3ccc(OC(F)F)cc3)c(=O)c(-c3ccc(OC(F)F)cc3)c2[nH]1 [Example 21, 7,9-bis[4-(difluoromethoxy)phenyl]-1H-pyrido[1,2-a]pyrimidin-2,8-dione] | 

Further lines, the compound ahead of its results:

SMILES | IC50 (MAT2A enzyme) [nM] | further results
Nc1nc2ccc(-c3cn4ccc(NCC(F)(F)F)nc4c(-c4ccc(OC(F)F)cc4)c3=O)cc2s1 [Example 18] | < 50 | 
Cn1cc2cc(-c3cn4ccc(C5CC5)nc4c(-c4ccc5nn(C)cc5c4)c3=O)ccc2n1 [Example 29, 2-cyclopropyl-7,9-bis(2-methyl-2H-indazol-5-yl)-8H-pyrido[1,2-a]pyrimidin-8-one] | > 1000 | 
COc1ccc(-c2c(Nc3ccccn3)[nH]c3c(C4=CCCCC4)c(-c4ccccc4)nn3c2=O)cc1 [AG-270, reference compound] |  | Tumor volume, mean volume ([1]; day 1 of administration): 154 mm^3; Tumor volume, mean volume ([1]; day 4 of administration): 189 mm^3; Tumor volume, mean volume ([1]; day 6 of administration): 219 mm^3; Tumor volume, mean volume ([1]; day 8 of administration): 244 mm^3; Tumor volume, mean volume ([1]; day 11 of administration): 303 mm^3; Tumor volume, mean volume ([1]; day 13 of administration): 369 mm^3; Tumor volume, mean volume ([1]; day 15 of administration): 419 mm^3
O=C1NC2(CC2)Cn2nc3ccc(-c4cn5ccc(NCC(F)(F)F)nc5c(-c5ccc(OC(F)F)cc5)c4=O)cc3c21 [Example 14, 9′-{9-[4-(difluoromethoxy)phenyl]-8-oxo-2-[(2,2,2-trifluoroethyl)amino]pyrido[1,2-a]pyrimidin-7-yl}-2′,4′-dihydrospiro[cyclopropane-1,3′-pyrazino[1,2-b]indazol]-1′-one] | < 50 | 
O=c1c(-c2ccc(OC(F)F)cc2)cn2c(C3CC3)ccnc2c1-c1ccc(OC(F)F)cc1 [Example 40, 4-cyclopropyl-7,9-bis[4-(difluoromethoxy)phenyl]-8H-pyrido[1,2-a]pyrimidin-8-one] | > 1000 | 
O=c1c(-c2ccc(OC(F)F)cc2)cn2ccc(-c3ccc(OC(F)F)cc3)cc2c1-c1ccc(OC(F)F)cc1 [Example 1, 1,3,8-tris(4-(difluoromethoxy)phenyl)-2H-quinolizin-2-one] | 50 to 200 | 
Cn1nccc1-c1c2cc(-c3cn4ccc(C5CC5)cc4c(-c4ccc5nn(C)c(-c6ccnn6C)c5c4)c3=O)ccc2nn1C [Example 8, 8-cyclopropyl-1,3-bis[2-methyl-3-(2-methylpyrazol-3-yl)indazol-5-yl]quinolizin-2-one] | > 1000 | 
COc1cc(-c2cn3ccc(C4CC4)nc3c(-c3ccc(OC(F)F)c(OC)c3)c2=O)ccc1OC(F)F [Example 37, 2-cyclopropyl-7,9-bis(4-(difluoromethoxy)-3-methoxyphenyl)-8H-pyrido[1,2-a]pyrimidin-8-one] | 50 to 200 | 
